The source of these data is patent US20250114353A1, “Combination Treatment Regimens - SMARCA2 Degrader With Gemcitabine” (priority 2023, published 2025).

SMILES strings stand for the structures.

The subject of the experiment is NCI-H838 tumors. The experiment is described as follows: NCI-H838 tumor bearing mouse model (SMARCA4-deficient lung cancer xenograft), tumor growth inhibition. It is filed as in vivo. The settings on record: NOD/SCID female mice, NCI-H838-#5 s.c. xenograft, versus vehicle.

Procedure: NOD/SCID female mice were inoculated subcutaneously with NCI-H838-#5 cells (5×10^6) into the right flank in PBS 0.1 ml mixed with Matrigel.
As used herein, tumor growth inhibition is calculated as follows: Mean % Inhibition=(mean(C)−mean(T))/mean(C)*100%, wherein C is the tumor volume in the control arm, and T is the tumor volume in the treatment arm.
The NCI-H838-#5 tumor cells are maintained in vitro with RPMI1640 medium supplemented with 10% fetal bovine serum at 37° C. in an atmosphere of 5% CO2 in air. The cells in exponential growth phase are harvested and quantitated by cell counter before tumor inoculation. NOD-SCID female mice are inoculated subcutaneously in the right front flank region with NCI-H838-#5 tumor cells (5×10^6) in 0.1 ml of PBS mixed with Matrigel (1:1) for tumor development. The randomization is performed when the mean tumor size reaches approximately 100-150 mm^3.
For the NCI-H838 CDX model, mice are inoculated subcutaneously with the NCI-H838 tumor cells (5×10^6).

With `Cc1ncsc1-c1ccc([C@H](C)NC(=O)[C@@H]2C[C@@H](O)CN2C(=O)[C@@H](c2cc(O[C@@H](C)CN3CC[C@@H](N4CCN5c6cc(-c7ccccc7O)nnc6NC[C@H]5C4)C3)no2)C(C)C)cc1` [Formula (I)], the “tumor growth inhibition (TGI)” value (single agent Formula (I) 100 mg/kg s.c. Q3D) is listed as “significantly inhibits the growth of NCI-H838 tumors”. As for `Nc1ccn([C@@H]2O[C@H](CO)[C@@H](O)C2(F)F)c(=O)n1` [gemcitabine, 4-amino-1-((2R,4R,5R)-3,3-difluoro-4-hydroxy-5-(hydroxymethyl)tetrahydrofuran-2-yl)pyrimidin-2(1H)-one], the “tumor growth inhibition (TGI)” value (single agent gemcitabine 100 mg/kg i.v. BIW) was “significant tumor growth inhibition”.
